Assay results as given in patent US9426996B2, “Use of benzoxaboroles as volatile antimicrobial agents on meats, plants, or plant parts” (AgroFresh Inc., priority 2013, dated 2016).

Experiments:
Alternaria alternata [1] = assay: combination treatment with 1-MCP on broccoli; format: in vivo; design: scale not given here; conditions: 1-MCP alone, 11 C.
Alternaria alternata [2] = assay: combination treatment with 1-MCP on broccoli; format: in vivo; design: scale not given here; conditions: 1-MCP alone, 21° C.
Description: To evaluate a combination treatment of Compound A with 1-methylcyclopropene (1-MCP), an in vivo experiment is performed on broccoli.
Broccoli flowers are inoculated with 1×10^6 spores/mL of Alternaria alternata and then placed in a 117 L Rubbermaid storage box (Cat #2244) with two small fans placed in opposite ends of the container. A 500 ppb v/v 1-MCP treatment is applied (AgroFresh, Springhouse, Pa.) for 24 hours at 1° C. After completion of the 1-MCP treatment, broccoli florets are removed and placed in a 10.8-cup SnapWare airtight container (Model #109842). Compound A powder is applied in a dose dependent manner to achieve a final headspace concentration of 2 or 0.4 mg/L with a sublimation device (copper tube heated to 200° C. with fan flow at 0.5 L/min), with the end of the tube penetrating through a ½ inch side port in the container that is sealed immediately after the application. The florets are incubated for five days at 10° C. or three days at 21° C., then evaluated for an additional five days at 21° C. for disease incidence and severity.

Alternaria alternata [3] = assay: combination treatment with 1-MCP on tomato; format: in vivo; conditions: tomatoes; 1-MCP 1000 ppb v/v alone
Description: Each tomato fruit is wounded three times and inoculated with 1×10^6 spores/mL of Alternaria alternata and then placed in a 117 L Rubbermaid storage box (Cat #2244) with two small fans placed in opposite ends of the container. A 1000 ppb v/v 1-MCP treatment is applied (AgroFresh, Springhouse, Pa.) for 24 hours at 21° C. After completion of the 1-MCP treatment, the tomatoes are removed and placed in a 10.8-cup […] airtight container (Model #109842). […] The tomatoes are incubated for three days at 21° C., then evaluated for an additional three days at 21° C. for disease incidence and severity. Results listed in Table 29 show good activity against Alternaria alternata infection of tomato.

Botrytis cinerea [4] = assay: combination treatment with 1-MCP on white roses; format: in vivo; conditions: 1-MCP 500 ppb v/v for 24 hours, no Compound A
Description: To evaluate a combination treatment of Compound A with 1-methylcyclopropene (1-MCP), an in vivo experiment is performed on white roses.
Five white roses are placed in an 800 mL jar containing 200 mL of a common commercial flower preservative. Three jars are then placed in a 117 L Rubbermaid storage box (Cat #2244). Two small fans are placed in opposite ends of the container to assist with the distribution of the two volatiles. A 500 parts per billion (ppb) volume per volume (v/v) 1-MCP treatment is applied (AgroFresh, Springhouse, Pa.) for 24 hours at 21° C. After the 1-MCP treatment is completed, the containers are vented, and Compound A powder is applied in a dose dependent manner to achieve a final headspace concentration of 0.2, 0.04, or 0.008 mg/L with a sublimation device (copper tube heated to 200° C. with fan flow at 0.5 L/min), with the end of the tube penetrating through a ½ inch side port in the container that is sealed immediately after the application. The flowers are incubated for three days at 21° C. After treatment, the flowers are evaluated for an additional seven days at 21° C. for disease incidence and severity of the flower petals.

Penicillium digitatum [5] = assay: in vivo volatile bioassay using orange (Compound B, sublimation); conditions: for Sporulation (mm) / Water soaked lesions (mm): oranges
Description: Two oranges per replicate are placed inside a clamshell. Three fresh wounds per orange are inoculated with 30 μL of 1×10^6 per mL Penicillium digitatum spore suspension. The clamshells are placed inside a 10.8-cup SnapWare airtight container (Model #109842). […] After storage, fruits are evaluated for disease incidence (mm diameter of the rot) and pathogen sporulation (mm diameter) on the surface of the fruits for an additional three days at 21° C., with results summarized in Table 20.

Botrytis cinerea [6] = assay: in vitro inhibition assay for volatile antimicrobial compounds (12-well PDA plates); format: cell-based; conditions: in vitro; volatile; 14 days at 4° C.
Description: 12-Well (7 milliliter (mL volume per well) microtiter plates are used for the in vitro inhibition assay for volatile antimicrobial compounds. A 3-mL volume of full-strength Potato Dextrose Agar (PDA) is added to each well. After cooling, 1 microliter (μL) of 1×10^6 per mL Botrytis cinerea spore suspension is spot pipetted to the center of the agar. For the first experiment, inoculated plates are allowed to germinate for 5 days at 4° C. For the second experiment, plates are inoculated immediately prior to volatile fungicide treatment. Small Whatman #1 filter disks (Cat. No. 1001-0155) are placed, in duplicate, on the underside of a polyethylene PCR plate sealing film.
The acetone is permitted to evaporate for 5 minutes. The headspace around the Botrytis cinerea inoculum is then sealed inside the well by the film with the adhering disk containing the fungicide. Plates are inverted, placed over the treated disks and sealed to prevent any of the chemical from flaking from the disk and falling onto the inoculated agar. After 14 days of storage at 4° C., cultures are evaluated for percent growth relative to control. Regardless of whether the spores had germinated for 5 days, or if the treatment commenced soon after inoculation of the plates (˜15 minutes); there is 100% control of the fungal pathogen down to 0.005 mg.
A total of 14 antimicrobial compounds are tested using the in vitro inhibition assay described in Example 1. All 14 compounds are applied to the Whatman disks, in duplicate, in a dose dependent manner (0.31 to 0.0006 mg/disk). […] Other compounds, such as Compound C, Compound D, and Compound E conferred 100% control down to 0.023, 0.04, and 0.08 mg/disk, respectively. Results of nine compounds are summarized in Table 2, where the other five compounds show no detected activity in the ranges tested. […]

Botrytis cinerea [7] = assay: in vivo volatile bioassay using strawberry
Description: In order to assess the in vivo activity of volatile antimicrobial compounds, a volatile bioassay is developed using strawberry. Two fruit are placed inside a 240 mL jar, with the calyx facing downwards. […] The acetone is permitted to evaporate for 5 minutes. The jars are then capped with the lids containing the fungicide, and placed for 5 days at 21° C. After storage, fruit are evaluated for incidence and severity of disease and appearance of phytotoxicity.

Penicillium digitatum [8] = assay: in vivo sublimation bioassay on fruit, 1 mg/L (Example 31)
Description: (§1) To assess the in vivo activity of volatile antimicrobial Compounds A and B (FIG. 1) in fruit, a volatile bioassay is developed using apple, pear, orange, strawberry, grape and blueberry.
(§2) Two apples, 2 oranges, 2 pears, 8 strawberries, 16 grapes or 30 blueberries (per replicate, in duplicate) are placed in a clamshell with the stem end facing up for all fruits except for strawberry (stem end facing downwards). A fresh wound is inoculated with 20 μL 1×10^6 per mL Penicillium expansum spore suspension (apple and pear), 20 μL 1×10^6 per mL Penicillium digitatum spore suspension (orange), and 20 μL (strawberry and grape) or 10 μL (blueberry) of 1×10^6 per mL Botrytis cinerea spore suspension. The clamshells are placed inside a 117 L Rubbermaid storage box (Cat #2244) with lids closed. […] After treatment, fruits are held for an additional three days at 21° C., then evaluated for disease incidence (mm diameter of browning or water-soaked lesions) and pathogen sporulation (mm diameter) for apple, pear and orange, as well as Botrytis cinerea disease incidence (%) and severity (0 to 4) for strawberry, grape and blueberry, with results summarized in Table 30.

Botrytis cinerea [9] = assay: as above; conditions: for Incidence (%) / Severity (0-4): 1 mg/L sublimed, three day treatment plus three days at 21° C.
Description: as §1, §2

Penicillium expansum = assay: as above; conditions: 1 mg/L sublimed, three day treatment plus three days at 21° C.
Description: as §1, §2

[10] = Orange, 1 mg/L sublimed, three day treatment plus three days at 21° C.

## CC1=CC1 [Compound 1-MCP, 1-methylcyclopropene, reference compound]
Alternaria alternata [1]
  Color Score: 1.50
  Severity: 0.18
Alternaria alternata [2]
  Color Score: 1.79
  Severity: 0.61
Alternaria alternata [3]
  Diameter of the rot (mm): 13.6 mm
Botrytis cinerea [4]
  Incidence (%): 33.3%
  Severity (0-4): 0.4

## OB1OCc2ccccc21 [Compound B, 2-(hydroxymethyl)phenylboronic acid cyclic monoester]
Penicillium digitatum [5]; 10 mg/L
  in vivo volatile inhibition of P. digitatum in orange: complete inhibition
Penicillium digitatum [5]; 0.4 mg/L, Day 0
  Sporulation (mm): 0.7 mm
  Water soaked lesions (mm): 5.7 mm
Penicillium digitatum [5]; 0.4 mg/L, Day 1
  Sporulation (mm): 1.4 mm
  Water soaked lesions (mm): 29.4 mm
Penicillium digitatum [5]; 0.4 mg/L, Day 2
  Sporulation (mm): 8.1 mm
  Water soaked lesions (mm): 49.3 mm
Penicillium digitatum [5]; 0.4 mg/L, Day 3
  Sporulation (mm): 27.2 mm
  Water soaked lesions (mm): 63.4 mm
Penicillium digitatum [5]; 2 mg/L, Day 0
  Sporulation (mm): 0 mm
  Water soaked lesions (mm): 0.5 mm
Penicillium digitatum [5]; 2 mg/L, Day 1
  Sporulation (mm): 0.3 mm
  Water soaked lesions (mm): 7.8 mm
Penicillium digitatum [5]; 2 mg/L, Day 2
  Sporulation (mm): 2.8 mm
  Water soaked lesions (mm): 30.7 mm
Penicillium digitatum [5]; 2 mg/L, Day 3
  Sporulation (mm): 5.7 mm
  Water soaked lesions (mm): 42.6 mm
Penicillium digitatum [5]; 10 mg/L, Day 0
  Sporulation (mm): 0 mm
  Water soaked lesions (mm): 0 mm
Penicillium digitatum [5]; 10 mg/L, Day 1
  Sporulation (mm): 0 mm
  Water soaked lesions (mm): 0 mm
Penicillium digitatum [5]; 10 mg/L, Day 2
  Sporulation (mm): 0 mm
  Water soaked lesions (mm): 0 mm
Penicillium digitatum [5]; 10 mg/L, Day 3
  Sporulation (mm): 0 mm
  Water soaked lesions (mm): 0.8 mm
Penicillium digitatum [5]; 50 mg/L, Day 0
  Sporulation (mm): 0 mm
  Water soaked lesions (mm): 0 mm
Penicillium digitatum [5]; 50 mg/L, Day 1
  Sporulation (mm): 0 mm
  Water soaked lesions (mm): 0 mm
Penicillium digitatum [5]; 50 mg/L, Day 2
  Sporulation (mm): 0 mm
  Water soaked lesions (mm): 0 mm
Penicillium digitatum [5]; 50 mg/L, Day 3
  Sporulation (mm): 0 mm
  Water soaked lesions (mm): 0 mm
Botrytis cinerea [6]
  lowest rate with 100% control of Botrytis cinerea: 0.0078 mg/disk
Botrytis cinerea [7]; 0.005 mg/disk, 5 days at 21° C.
  Percent (%) Incidence of Botrytis cinerea on Strawberry (in vivo): 100%
Botrytis cinerea [7]; 0.01 mg/disk, 5 days at 21° C.
  Percent (%) Incidence of Botrytis cinerea on Strawberry (in vivo): 100%
Botrytis cinerea [7]; 0.02 mg/disk, 5 days at 21° C.
  Percent (%) Incidence of Botrytis cinerea on Strawberry (in vivo): 100%
Botrytis cinerea [7]; 0.04 mg/disk, 5 days at 21° C.
  Percent (%) Incidence of Botrytis cinerea on Strawberry (in vivo): 75%
Botrytis cinerea [7]; 0.08 mg/disk, 5 days at 21° C.
  Percent (%) Incidence of Botrytis cinerea on Strawberry (in vivo): 50%
Botrytis cinerea [7]; 0.16 mg/disk, 5 days at 21° C.
  Percent (%) Incidence of Botrytis cinerea on Strawberry (in vivo): 25%
Botrytis cinerea [7]; 0.32 mg/disk, 5 days at 21° C.
  Percent (%) Incidence of Botrytis cinerea on Strawberry (in vivo): 0%
Botrytis cinerea [7]; 0.64 mg/disk, 5 days at 21° C.
  Percent (%) Incidence of Botrytis cinerea on Strawberry (in vivo): 0%
Botrytis cinerea [7]; 1.25 mg/disk, 5 days at 21° C.
  Percent (%) Incidence of Botrytis cinerea on Strawberry (in vivo): 0%
Botrytis cinerea [7]; 2.5 mg/disk, 5 days at 21° C.
  Percent (%) Incidence of Botrytis cinerea on Strawberry (in vivo): 0%
Botrytis cinerea [7]; strawberry, 5 days at 21° C.
  lowest rate with 100% control of Botrytis cinerea: 0.32 mg/disk
Botrytis cinerea [7]; strawberry, any of the rates evaluated (2.5 to 0.005 mg/disk)
  appearance of phytotoxicity: no evidence of phytotoxicity
Penicillium digitatum [8]; 1 mg/L, volatile fungicide
  in vivo antimicrobial control of P. digitatum: 100%
Penicillium digitatum [8]; [10]
  Sporulation (mm): 0.0 mm
  Water soaked lesion: 0.0 mm
Botrytis cinerea [9]; 1 mg/L, volatile fungicide on different hosts
  in vivo antimicrobial control of B. cinerea: 100%
Botrytis cinerea [9]; Blueberry
  Incidence (%): 0.0%
  Severity (0-4): 0.0
Botrytis cinerea [9]; Grape
  Incidence (%): 0.0%
  Severity (0-4): 0.0
Botrytis cinerea [9]; Strawberry
  Incidence (%): 0.0%
  Severity (0-4): 0.0
Penicillium expansum; Apple
  Browning (mm): 2.3 mm
  Sporulation (mm): 0.2 mm
Penicillium expansum; Pear
  Browning (mm): 1.1 mm
  Sporulation (mm): 0.0 mm
